Reference: US20110027226A1, “INDOLOPYRIDINES AS INHIBITORS OF THE KINESIN SPINDLE PROTEIN (EG5)” (4SC AG, priority 2007, published 2011)

Legend:
[1] = tested on: RKO human colon adenocarcinoma cells (RKOp27 subclone, uninduced, proliferating); test: Alamar Blue cell viability assay, anti-proliferative/cytotoxic activity, RKO p27 uninduced (proliferating); format: cell-based; details: 72 hours incubation, read-out: −log EC50 [mol/l] RKO p27 uninduced (proliferating) (converted)
Procedure: The compounds are dissolved as 10 mM solutions in DMSO and subsequently diluted in semi-logarithmic steps. DMSO dilutions are further diluted 1:100 v:v into Dulbecco's modified Eagle's medium (DMEM) containing 10% fetal calf serum to a final concentration twice as much as the final concentration in the test. RKO subclones are seeded into 96 well flat bottom plates at a density of 4000 cells per well in a volume of 50 μl per well. 24 hours after seeding the 50 μl each of the compound dilutions in DMEM medium are added into each well of the 96 well plate. Each compound dilution is tested as triplicates. Wells containing untreated control cells are filled with 50 μl DMEM medium containing 1% DMSO. The cells are then incubated with the substances for 72 hours at 37° C. in a humidified atmosphere containing 5% carbon dioxide. To determine the viability of the cells, 10 μl of an Alamar Blue solution (Biosource) are added and the fluorescence is measured at an extinction of 544 nm and an emission of 590 nm. For the calculation of the cell viability the emission value from untreated cells is set as 100% viability and the emission rates of treated cells are set in relation to the values of untreated cells. Viabilities are expressed as % values. The Graphpad Prism program is used for the calculation of EC50 values for anti-proliferative/cytotoxic activity out of the obtained dose-response curves.
Each compound dilution is tested as triplicates. Wells containing untreated control cells are filled with 50 μl DMEM medium containing 1% DMSO. The cells are then incubated with the substances for 72 hours at 37° C. in a humidified atmosphere containing 5% carbon dioxide. To determine the viability of the cells, 10 μl of an Alamar Blue solution (Biosource) are added and the fluorescence is measured at an extinction of 544 nm and an emission of 590 nm. For the calculation of the cell viability the emission value from untreated cells is set as 100% viability and the emission rates of treated cells are set in relation to the values of untreated cells. Viabilities are expressed as % values. The Graphpad Prism program (GraphPad Software, Inc) is used for the calculation of EC50 values out of the obtained dose-response curves. Viability is compared of proliferating cells grown in the absence of the inducer Ponasterone A, versus viability of cells arrested by the expression of ectopic p27Kip1 induced by Ponasterone A.

SMILES | melting point | EC50 [1]
CN1C(=O)[C@@H]2Cc3c([nH]c4ccc(Br)cc34)[C@@H](c3cccc(O)c3)N2C1=O (racemic) [Example 3, (3aSR,10RS)-6-Bromo-10-(3-hydroxy-phenyl)-2-methyl-3a,4,9,10-tetrahydro-2,9,10a-triaza-cyclopenta[b]fluorene-1,3-dione] |  | ≤ 1000 nM
Cc1ccc2[nH]c3c(c2c1)C[C@H]1C(=O)N(C)C(=O)N1[C@@H]3c1cccc(O)c1 (racemic) [Example 4, (3aSR,10RS)-10-(3-Hydroxy-phenyl)-2,6-dimethyl-3a,4,9,10-tetrahydro-2,9,10a-triaza-cyclopenta[b]fluorene-1,3-dione] |  | ≤ 1000 nM
Cc1ccc2c3c([nH]c2c1)[C@@H](c1cccc(O)c1)N1C(=O)N(C)C(=O)[C@@H]1C3 (racemic) [Example 6, (3aSR,10RS)-10-(3-Hydroxy-phenyl)-2,7-dimethyl-3a,4,9,10-tetrahydro-2,9,10a-triaza-cyclopenta[b]fluorene-1,3-dione] | 282 to 285 °C | 

Continued, in another order:

melting point | SMILES | EC50 [1]
279 to 283 °C | CN1C(=O)[C@@H]2Cc3c([nH]c4cc(F)ccc34)[C@@H](c3cccc(O)c3)N2C1=O (racemic) [Example 2, (3aSR,10RS)-7-Fluoro-10-(3-hydroxy-phenyl)-2-methyl-3a,4,9,10-tetrahydro-2,9,10a-triaza-cyclopenta[b]fluorene-1,3-dione] | ≤ 1000 nM
348 to 352 °C | Cc1cccc2[nH]c3c(c12)C[C@H]1C(=O)N(C)C(=O)N1[C@@H]3c1cccc(O)c1 (racemic) [Example 5, (3aSR,10RS)-10-(3-Hydroxy-phenyl)-2,5-dimethyl-3a,4,9,10-tetrahydro-2,9,10a-triaza-cyclopenta[b]fluorene-1,3-dione] | ≤ 1000 nM
172 to 175 °C | COc1ccc2[nH]c3c(c2c1)C[C@H]1C(=O)N(C)C(=O)N1[C@@H]3c1cccc(O)c1 (racemic) [Example 7, (3aSR,10RS)-10-(3-Hydroxy-phenyl)-6-methoxy-2-methyl-3a,4,9,10-tetrahydro-2,9,10a-triaza-cyclopenta[b]fluorene-1,3-dione] | ≤ 1000 nM
